Tested on: fibromyalgia pain in soft tissue regions and myofacial regions
Conditions: for patient-reported pain levels in the treated regions: daily use in a topical form on skin adjacent to regions where pain is experienced, during treatment; for patient-reported pain levels after treatment is halted: treatment halted after several months, report weeks later
Text: The following prophetic examples are of cases that address the painful experiences associated with fibromyalgia. The examples also describe a new, safe, simple and until now, an unknown pharmaceutical solution to the problem of fibromyalgia syndrome: the novel use of vasodilators such as calcium channel blockers, ACE inhibitors, and angiotensin receptor blockers. Vasodilators are not analgesics, but they resolve or mitigate the pain associated with fibromyalgia.
A patient is diagnosed with fibromyalgia, and suffers from pain in soft tissue regions and myofacial regions. […] After several months, treatment is halted.
A patient is diagnosed with fibromyalgia, and suffers from pain in soft tissue regions and myofacial regions. Daily use of Amlodipine in a topical form is prescribed for application to skin adjacent to regions where pain is experienced. […] After several months, treatment is halted.
A patient is diagnosed with fibromyalgia, and suffers from pain in soft tissue regions and myofacial regions. Daily use of enalapril in a topical form is prescribed for application to skin adjacent to regions where pain is experienced. […] After several months, treatment is halted.
A patient is diagnosed with fibromyalgia, and suffers from pain in soft tissue regions and myofacial regions. Daily use of lisinopril in a topical form is prescribed for application to skin adjacent to regions where pain is experienced. […] After several months, treatment is halted.
A patient is diagnosed with fibromyalgia, and suffers from pain in soft tissue regions and myofacial regions. Daily use of losartan in a topical form is prescribed for application to skin adjacent to regions where pain is experienced. […] After several months, treatment is halted.
A patient is diagnosed with fibromyalgia, and suffers from pain in soft tissue regions and myofacial regions. Daily use of irbesartan in a topical form is prescribed for application to skin adjacent to regions where pain is experienced. […] After several months, treatment is halted.

Structure (SMILES)	patient-reported pain levels in the treated regions	patient-reported pain levels after treatment is halted
CCOC(=O)[C@H](CCc1ccccc1)N[C@@H](C)C(=O)N1CCC[C@H]1C(=O)O [enalapril]	reduction in pain levels	reduction in pain levels has been maintained
CCCCC1=NC2(CCCC2)C(=O)N1Cc1ccc(-c2ccccc2-c2nnn[nH]2)cc1 [irbesartan]	reduction in pain levels	reduction in pain levels has been maintained
NCCCC[C@H](N[C@@H](CCc1ccccc1)C(=O)O)C(=O)N1CCC[C@H]1C(=O)O [lisinopril]	reduction in pain levels	reduction in pain levels has been maintained
CCCCc1nc(Cl)c(CO)n1Cc1ccc(-c2ccccc2-c2nn[nH]n2)cc1 [losartan]	reduction in pain levels	reduction in pain levels has been maintained

From patent US20220241264A1, “METHODS FOR PREVENTION AND TREATMENT OF FIBROMYALGIA BY CONTACT VASODILATORS” (priority 2019, published 2022)
